Test results published in ChEMBL document CHEMBL1201862, “PubChem BioAssay data set” (2004).
The source made the active and inactive calls.

How the values were obtained:
[1] = target: T1, Tyrosine-protein phosphatase non-receptor type 7 (Homo sapiens, UniProt P35236); type: functional
T1 sequence (P35236 whole entry): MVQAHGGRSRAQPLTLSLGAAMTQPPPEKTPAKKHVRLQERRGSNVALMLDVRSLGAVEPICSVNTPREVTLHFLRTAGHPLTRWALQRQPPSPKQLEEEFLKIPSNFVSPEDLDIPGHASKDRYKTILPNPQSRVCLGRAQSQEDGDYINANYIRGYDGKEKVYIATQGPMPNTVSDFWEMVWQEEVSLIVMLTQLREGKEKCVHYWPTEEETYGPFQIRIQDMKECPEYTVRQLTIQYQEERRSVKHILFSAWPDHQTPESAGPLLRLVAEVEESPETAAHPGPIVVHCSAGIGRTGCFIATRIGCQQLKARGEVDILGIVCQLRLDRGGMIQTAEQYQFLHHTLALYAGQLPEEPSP

Bcl-2-like protein 10 = target: T2, Bcl-2-like protein 10 (Homo sapiens, UniProt Q9HD36); assay: Bcl-B/TR3 peptide binding disruption – biochemical, fluorescence polarization, FITC-TR3 peptide, selectivity assay for Bfl-1 inhibitor project, primary screen (AID 748);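 further: fluorescence polarization from a fluorescein-labelled TR3 peptide binding purified Bcl-B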
T2 sequence (Q9HD36 whole entry): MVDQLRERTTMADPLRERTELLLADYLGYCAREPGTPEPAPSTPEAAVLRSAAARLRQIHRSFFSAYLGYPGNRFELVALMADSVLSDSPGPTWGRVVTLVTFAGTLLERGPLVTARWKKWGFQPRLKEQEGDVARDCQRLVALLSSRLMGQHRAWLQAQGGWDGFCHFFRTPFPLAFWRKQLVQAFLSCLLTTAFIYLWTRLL

[2] = target: Glyceraldehyde-3-phosphate dehydrogenase (Homo sapiens, UniProt P04406)
[3] = target: Heat shock cognate 71 kDa protein (Homo sapiens, UniProt P11142); assay: In Vitro Hsc70 Dose Response Fluorescence Polarization Assay. [Related pubchem assays: 1072 ]
Large T antigen = Large T antigen (Simian virus 40, UniProt P03070); type: functional, Betapolyomavirus macacae;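 further: Confirmatory-stage PubChem screen for compounds that inhibit SV40 T antigen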
Large T antigen, sequence (P03070 whole entry): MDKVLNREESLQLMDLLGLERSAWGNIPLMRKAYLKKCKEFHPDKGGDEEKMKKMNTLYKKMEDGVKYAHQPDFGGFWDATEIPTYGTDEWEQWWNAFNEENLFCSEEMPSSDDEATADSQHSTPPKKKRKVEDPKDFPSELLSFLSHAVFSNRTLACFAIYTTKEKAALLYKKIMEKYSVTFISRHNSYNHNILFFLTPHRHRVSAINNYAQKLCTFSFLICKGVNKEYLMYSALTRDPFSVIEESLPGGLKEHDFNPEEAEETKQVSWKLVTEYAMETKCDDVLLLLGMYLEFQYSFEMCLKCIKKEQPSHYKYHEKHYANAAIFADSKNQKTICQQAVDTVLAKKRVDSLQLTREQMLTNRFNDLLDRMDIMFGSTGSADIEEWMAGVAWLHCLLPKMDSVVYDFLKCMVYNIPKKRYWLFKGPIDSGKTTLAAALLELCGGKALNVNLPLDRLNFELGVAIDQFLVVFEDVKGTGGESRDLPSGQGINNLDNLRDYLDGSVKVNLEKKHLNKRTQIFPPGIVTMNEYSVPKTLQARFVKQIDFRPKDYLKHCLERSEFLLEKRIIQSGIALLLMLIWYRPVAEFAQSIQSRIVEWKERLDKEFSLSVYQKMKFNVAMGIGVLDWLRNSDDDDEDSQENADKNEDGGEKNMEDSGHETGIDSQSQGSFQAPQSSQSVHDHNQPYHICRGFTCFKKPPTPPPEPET

[4] = target: T3, E3 ubiquitin-protein ligase XIAP (Homo sapiens, UniProt P98170); assay: Counter Screen using XIAP-Bir3 for Chemical Antagonists of Bir1/2 domains of IAP-family anti-apoptotic proteins. [Related pubchem assays (depositor defined):AID1018, AID1449, AID1514, AID1638, AID1749, AID1750, AID488957, AID488963]
T3 sequence (P98170 whole entry): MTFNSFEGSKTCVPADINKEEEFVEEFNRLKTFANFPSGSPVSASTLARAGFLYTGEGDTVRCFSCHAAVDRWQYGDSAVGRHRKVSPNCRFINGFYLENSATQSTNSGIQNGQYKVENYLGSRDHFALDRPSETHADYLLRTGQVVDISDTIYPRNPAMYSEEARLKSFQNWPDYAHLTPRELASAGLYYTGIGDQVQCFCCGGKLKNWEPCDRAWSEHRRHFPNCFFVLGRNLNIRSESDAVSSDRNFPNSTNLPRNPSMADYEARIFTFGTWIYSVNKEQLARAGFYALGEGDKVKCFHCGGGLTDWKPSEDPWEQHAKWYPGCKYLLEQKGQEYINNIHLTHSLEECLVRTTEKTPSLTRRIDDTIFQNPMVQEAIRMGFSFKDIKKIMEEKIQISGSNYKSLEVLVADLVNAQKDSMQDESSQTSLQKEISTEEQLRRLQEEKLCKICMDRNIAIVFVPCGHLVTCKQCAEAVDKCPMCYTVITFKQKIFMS

[5] = target: T3, E3 ubiquitin-protein ligase XIAP; assay: small molecules displacing peptide from XIAP – biochemical, IAP family, fluorescence polarization (AID 1018); type: functional
[6] = target: Heat shock 70 kDa protein 1A (Homo sapiens, UniProt P0DMV8); assay: inhibition of Hsp70 binding activity – biochemical, fluorescence polarization, SAR follow-up (AID 1072)
Heat shock 70 kDa protein 1A, sequence (P0DMV8 whole entry): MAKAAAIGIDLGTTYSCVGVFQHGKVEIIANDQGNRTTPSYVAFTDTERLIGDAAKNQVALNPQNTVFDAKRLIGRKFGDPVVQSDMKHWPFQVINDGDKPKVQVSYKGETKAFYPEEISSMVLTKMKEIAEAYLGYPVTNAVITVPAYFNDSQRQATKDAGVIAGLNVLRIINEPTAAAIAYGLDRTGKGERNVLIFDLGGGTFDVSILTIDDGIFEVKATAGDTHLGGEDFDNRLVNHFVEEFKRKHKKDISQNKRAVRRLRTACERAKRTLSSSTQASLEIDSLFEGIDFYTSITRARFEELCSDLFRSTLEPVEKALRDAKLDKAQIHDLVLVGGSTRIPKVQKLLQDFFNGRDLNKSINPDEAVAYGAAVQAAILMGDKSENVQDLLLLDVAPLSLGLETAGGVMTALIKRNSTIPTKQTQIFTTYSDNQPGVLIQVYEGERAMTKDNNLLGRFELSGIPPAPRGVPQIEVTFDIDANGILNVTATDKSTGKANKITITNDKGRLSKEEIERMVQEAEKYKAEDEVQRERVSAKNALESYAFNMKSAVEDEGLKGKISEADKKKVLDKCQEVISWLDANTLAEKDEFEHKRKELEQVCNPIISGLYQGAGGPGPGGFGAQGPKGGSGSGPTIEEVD

[7] = target: T4, Dual specificity protein phosphatase 6 (Rattus norvegicus, UniProt Q64346)
T4 sequence (Q64346 whole entry): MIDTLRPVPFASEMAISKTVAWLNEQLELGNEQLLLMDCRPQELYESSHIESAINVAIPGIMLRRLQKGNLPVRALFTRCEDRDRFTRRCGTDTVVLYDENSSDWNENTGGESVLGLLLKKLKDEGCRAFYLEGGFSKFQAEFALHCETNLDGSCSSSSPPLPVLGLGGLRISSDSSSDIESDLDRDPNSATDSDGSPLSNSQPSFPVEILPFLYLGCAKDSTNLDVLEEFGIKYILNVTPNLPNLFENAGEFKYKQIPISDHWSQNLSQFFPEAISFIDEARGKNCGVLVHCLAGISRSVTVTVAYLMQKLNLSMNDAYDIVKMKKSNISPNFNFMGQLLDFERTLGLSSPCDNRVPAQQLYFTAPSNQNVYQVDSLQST

[8] = target: T4, Dual specificity protein phosphatase 6; assay: inhibition of rat DUSP6 enzyme activity – biochemical, in vitro, primary screen (AID 425)
[9] = target: Induced myeloid leukemia cell differentiation protein Mcl-1 (Homo sapiens, UniProt Q07820); type: functional
Induced myeloid leukemia cell differentiation protein Mcl-1, sequence (Q07820 whole entry): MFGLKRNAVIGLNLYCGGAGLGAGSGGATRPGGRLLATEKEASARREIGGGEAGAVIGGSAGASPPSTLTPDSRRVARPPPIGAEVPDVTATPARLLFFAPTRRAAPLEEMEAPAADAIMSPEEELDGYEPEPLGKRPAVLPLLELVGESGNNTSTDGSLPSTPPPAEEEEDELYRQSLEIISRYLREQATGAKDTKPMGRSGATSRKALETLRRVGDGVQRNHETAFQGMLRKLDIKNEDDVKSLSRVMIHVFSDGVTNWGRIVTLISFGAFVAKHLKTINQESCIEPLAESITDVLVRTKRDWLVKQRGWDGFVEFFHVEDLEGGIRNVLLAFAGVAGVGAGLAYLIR

[10] = target: Eukaryotic translation initiation factor 4E (Mus musculus, UniProt P63073); assay: blockers of eIF4G binding by eIF4E – biochemical, TR-FRET, dose response (AID 855); type: functional;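 further: potency for disrupting eIF4E binding to eIF4GI seen as loss of FRET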
Eukaryotic translation initiation factor 4E, sequence (P63073 whole entry): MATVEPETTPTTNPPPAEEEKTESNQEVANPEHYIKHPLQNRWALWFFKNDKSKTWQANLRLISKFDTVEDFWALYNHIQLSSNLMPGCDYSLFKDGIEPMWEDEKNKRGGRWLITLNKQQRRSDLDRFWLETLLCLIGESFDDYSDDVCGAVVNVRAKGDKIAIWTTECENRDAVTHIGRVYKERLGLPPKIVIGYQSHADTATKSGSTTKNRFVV

[11] = target: T4, Dual specificity protein phosphatase 6; type: functional
[12] = target: Transitional endoplasmic reticulum ATPase (Homo sapiens, UniProt P55072, C522A); assay: Luminescence counterscreen assay for p97 inhibitors: dose response biochemical high throughput screening assay to identify inhibitors of the C522A mutant p97 ATPase: synthesized compounds. [Related pubchem assays: 1481, 1517, 1551 ]
[13] = target: Transitional endoplasmic reticulum ATPase (Homo sapiens, UniProt P55072); assay: Luminescence dose response biochemical high throughput screening assay for inhibitors of the p97 ATPase: synthesized compounds. [Related pubchem assays: 1481, 1517 ]
Transitional endoplasmic reticulum ATPase (Homo sapiens, UniProt P55072), sequence (P55072 whole entry): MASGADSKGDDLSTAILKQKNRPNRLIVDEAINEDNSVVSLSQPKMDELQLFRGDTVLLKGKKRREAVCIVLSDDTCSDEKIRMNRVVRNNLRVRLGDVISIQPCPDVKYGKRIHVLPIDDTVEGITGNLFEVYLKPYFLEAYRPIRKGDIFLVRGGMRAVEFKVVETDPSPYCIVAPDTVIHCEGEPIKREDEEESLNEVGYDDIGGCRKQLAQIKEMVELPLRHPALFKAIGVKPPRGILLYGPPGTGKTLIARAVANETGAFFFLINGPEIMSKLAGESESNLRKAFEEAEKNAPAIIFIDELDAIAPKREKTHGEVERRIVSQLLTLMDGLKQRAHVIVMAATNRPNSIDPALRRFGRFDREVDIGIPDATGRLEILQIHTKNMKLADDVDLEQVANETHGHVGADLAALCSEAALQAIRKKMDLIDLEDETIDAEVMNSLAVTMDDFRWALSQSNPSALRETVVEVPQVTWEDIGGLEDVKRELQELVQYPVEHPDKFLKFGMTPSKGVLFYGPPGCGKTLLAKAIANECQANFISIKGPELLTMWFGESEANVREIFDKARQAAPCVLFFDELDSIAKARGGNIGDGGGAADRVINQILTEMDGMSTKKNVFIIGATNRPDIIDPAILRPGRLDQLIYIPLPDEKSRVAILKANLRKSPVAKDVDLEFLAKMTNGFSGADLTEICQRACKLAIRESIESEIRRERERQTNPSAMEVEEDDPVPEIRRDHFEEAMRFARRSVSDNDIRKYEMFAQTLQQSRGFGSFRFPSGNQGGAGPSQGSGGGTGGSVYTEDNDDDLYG

[14] = Luminescence Cell-Based Dose Retest to Confirm Inhibitors of Cancer Stem Cells. [Related pubchem assays (depositor defined):AID2717, AID2721]; type: functional; conditions: Homo sapiens
[15] = target: T5, Ubiquitin-conjugating enzyme E2 N (Homo sapiens, UniProt P61088); type: functional;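 further: Dose-response confirmation in a TR-FRET assay detecting UBC13-driven polyubiquitin chain formation, inhibition measured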
T5 sequence (P61088 whole entry): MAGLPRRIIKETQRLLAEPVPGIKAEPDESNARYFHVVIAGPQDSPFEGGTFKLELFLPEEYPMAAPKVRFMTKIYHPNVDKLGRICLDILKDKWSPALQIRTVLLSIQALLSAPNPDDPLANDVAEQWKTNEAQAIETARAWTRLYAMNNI

[16] = target: Neurotensin receptor type 1 (Homo sapiens, UniProt P30989); type: functional;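 further: Image-based confirmatory dose-response assay measuring agonist activity at NTR1; NTR1-expressing U2OS osteosarcoma cells imaged for beta-arrestin GFP spot formation; agonist potency where compounds increase beta-arrestin recruitment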
Aminopeptidase N = target: T6, Aminopeptidase N (Plasmodium falciparum FcB1/Columbia, UniProt O96935); assay: malaria alanyl aminopeptidase activity blockers – biochemical, fluorogenic H-Leu-NHMec substrate, 1536-well (AID 1445); parameters: species or system Plasmodium falciparum 3D7, 3D7
T6 sequence (O96935 whole entry): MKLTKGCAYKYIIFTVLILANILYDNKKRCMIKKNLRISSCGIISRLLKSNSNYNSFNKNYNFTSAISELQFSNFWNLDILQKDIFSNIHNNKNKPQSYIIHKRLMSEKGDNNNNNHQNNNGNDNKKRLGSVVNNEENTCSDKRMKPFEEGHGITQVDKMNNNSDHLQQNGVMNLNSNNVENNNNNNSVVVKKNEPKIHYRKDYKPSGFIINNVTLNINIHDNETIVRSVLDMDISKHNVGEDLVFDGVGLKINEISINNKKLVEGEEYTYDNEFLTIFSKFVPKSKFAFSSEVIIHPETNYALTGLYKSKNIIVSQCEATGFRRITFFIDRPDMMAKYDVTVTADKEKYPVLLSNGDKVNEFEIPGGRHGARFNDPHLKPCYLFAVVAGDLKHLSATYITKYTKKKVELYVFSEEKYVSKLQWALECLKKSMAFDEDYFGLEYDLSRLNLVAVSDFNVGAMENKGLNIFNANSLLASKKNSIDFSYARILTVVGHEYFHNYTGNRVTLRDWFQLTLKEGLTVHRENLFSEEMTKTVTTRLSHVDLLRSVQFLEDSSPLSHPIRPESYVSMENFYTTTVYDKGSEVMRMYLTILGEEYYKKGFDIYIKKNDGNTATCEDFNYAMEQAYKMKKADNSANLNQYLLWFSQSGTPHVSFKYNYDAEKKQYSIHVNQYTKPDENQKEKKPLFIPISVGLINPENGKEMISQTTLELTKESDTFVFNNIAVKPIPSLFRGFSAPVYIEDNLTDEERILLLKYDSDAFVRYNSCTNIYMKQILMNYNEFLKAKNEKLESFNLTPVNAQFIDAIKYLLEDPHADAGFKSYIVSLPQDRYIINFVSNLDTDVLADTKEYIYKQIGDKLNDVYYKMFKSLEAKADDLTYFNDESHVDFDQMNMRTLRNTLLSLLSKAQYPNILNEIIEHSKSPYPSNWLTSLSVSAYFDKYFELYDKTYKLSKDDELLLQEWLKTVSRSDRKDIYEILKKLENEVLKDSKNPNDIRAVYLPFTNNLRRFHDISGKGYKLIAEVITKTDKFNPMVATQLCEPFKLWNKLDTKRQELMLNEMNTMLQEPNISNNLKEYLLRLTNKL

[17] = system: Streptococcus sp. 'group A'; assay: Streptococcus pyogenes SK(-)GAS viability under kanamycin – luminescence, BacTiterGlo, confirmation, counter-screen for streptokinase expression inhibitor project, dose response (AID 1900); type: functional, organism-based
[18] = target: Serine/threonine-protein phosphatase PP1-alpha catalytic subunit (Homo sapiens, UniProt P62136); assay: inhibition of protein phosphatase 1 activity – biochemical, fluorescence, dose response (AID 2403);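 further: phosphatase turnover of OMFP into fluorescent 3-O-methylfluorescein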
Serine/threonine-protein phosphatase PP1-alpha catalytic subunit, sequence (P62136 whole entry): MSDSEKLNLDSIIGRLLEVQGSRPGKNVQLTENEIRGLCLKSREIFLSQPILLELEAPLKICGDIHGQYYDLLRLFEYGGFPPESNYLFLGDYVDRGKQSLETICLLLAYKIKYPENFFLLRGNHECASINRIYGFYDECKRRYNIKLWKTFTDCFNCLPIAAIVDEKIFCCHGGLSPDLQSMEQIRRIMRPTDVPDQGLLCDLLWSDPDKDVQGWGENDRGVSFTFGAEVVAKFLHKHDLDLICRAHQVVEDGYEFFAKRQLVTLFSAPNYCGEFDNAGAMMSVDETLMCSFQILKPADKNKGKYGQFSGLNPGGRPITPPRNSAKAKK

Streptokinase A = target: T7, Streptokinase A (Streptococcus pyogenes serotype M1, UniProt P10520); assay: viability-normalized secreted streptokinase activity reduction – plasminogen activation absorbance, OD405, dose response (AID 1914); type: functional, Streptococcus pyogenes M1 GAS;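 further: secreted streptokinase activity via plasminogen activation per viability signal from cell pellet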
T7 sequence (P10520 whole entry): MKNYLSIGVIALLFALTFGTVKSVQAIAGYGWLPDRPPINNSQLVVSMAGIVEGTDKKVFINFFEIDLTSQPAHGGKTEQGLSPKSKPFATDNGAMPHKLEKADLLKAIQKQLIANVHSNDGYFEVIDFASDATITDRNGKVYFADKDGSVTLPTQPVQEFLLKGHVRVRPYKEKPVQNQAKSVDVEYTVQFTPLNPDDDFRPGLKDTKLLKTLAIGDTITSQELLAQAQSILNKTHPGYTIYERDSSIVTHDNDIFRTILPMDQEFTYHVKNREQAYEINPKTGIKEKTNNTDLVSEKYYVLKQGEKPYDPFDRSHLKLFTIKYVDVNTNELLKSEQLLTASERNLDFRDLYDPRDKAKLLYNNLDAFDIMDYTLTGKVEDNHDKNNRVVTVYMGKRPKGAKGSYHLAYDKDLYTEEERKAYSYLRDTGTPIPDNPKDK

[19] = target: Serine/threonine-protein phosphatase (Homo sapiens, UniProt Q9BPW0); assay: Counterscreen for inhibitors of PP1: fluorescence-based biochemical high throughput dose response assay to identify inhibitors of Protein Phosphatase 5 (PP5). [Related pubchem assays: 2034 (Summary (PP5 inhibitors)), 1987 (PP5 inhibitors in singlate), 2235 (PP1 inhibitors in singlate)]
Streptococcus = assay: GAS UMAA2166 growth inhibition – luminescence, BacTiterGlo, counter-screen for streptokinase expression inhibitor project, dose response (AID 1915); type: functional, organism-based;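 further: potency for reduction of bacterial viability or growth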
[20] = target: T8, Neuropeptides B/W receptor type 1 (Homo sapiens, UniProt P48145); assay: Fluorescence-based dose response cell-based high throughput screening assay to identify antagonists of the G-protein coupled receptor 7 (GPR7). [Related pubchem assays: 1952 (Screening assay (GPR7 antagonists).), 1880 (Summary AID.)]; type: functional
T8 sequence (P48145 whole entry): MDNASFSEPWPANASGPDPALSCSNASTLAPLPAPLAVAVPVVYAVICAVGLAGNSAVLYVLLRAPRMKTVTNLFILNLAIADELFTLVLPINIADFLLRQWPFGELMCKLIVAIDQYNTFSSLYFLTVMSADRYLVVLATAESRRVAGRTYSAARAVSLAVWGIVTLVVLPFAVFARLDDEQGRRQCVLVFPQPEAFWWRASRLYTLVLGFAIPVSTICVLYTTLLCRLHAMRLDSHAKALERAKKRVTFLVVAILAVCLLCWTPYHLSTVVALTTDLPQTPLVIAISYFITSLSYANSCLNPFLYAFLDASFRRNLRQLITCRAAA

[21] = target: Melanin-concentrating hormone receptor 1 (Homo sapiens, UniProt Q99705); assay: Fluorescence-based counterscreen for antagonists of the G-protein coupled receptor 7 (GPR7): cell-based high throughput dose response assay to identify antagonists of the melanin-concentrating hormone receptor 1 (MCHR1).; type: functional
Melanin-concentrating hormone receptor 1, sequence (Q99705 whole entry): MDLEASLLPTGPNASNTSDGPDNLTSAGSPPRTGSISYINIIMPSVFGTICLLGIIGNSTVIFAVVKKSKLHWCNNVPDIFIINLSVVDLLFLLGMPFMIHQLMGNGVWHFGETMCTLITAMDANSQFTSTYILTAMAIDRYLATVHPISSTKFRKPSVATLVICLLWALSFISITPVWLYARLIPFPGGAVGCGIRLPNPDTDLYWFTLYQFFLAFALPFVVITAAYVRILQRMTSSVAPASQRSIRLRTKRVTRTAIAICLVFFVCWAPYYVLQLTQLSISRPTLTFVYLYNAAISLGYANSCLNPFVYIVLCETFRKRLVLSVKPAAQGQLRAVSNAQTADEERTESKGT

Cytochrome P450 2C9 = Cytochrome P450 2C9 (Homo sapiens, UniProt P11712); conditions: Potency
Wee1-like protein kinase = Wee1-like protein kinase (Homo sapiens, UniProt P30291); assay: HeLa cell cycle G2/M accumulation – FACS, mechanism study for Wee1 degradation inhibitor project, late-stage follow-up, panel member Wee1 Degradation (AID 2088)
Wee1-like protein kinase, sequence (P30291 whole entry): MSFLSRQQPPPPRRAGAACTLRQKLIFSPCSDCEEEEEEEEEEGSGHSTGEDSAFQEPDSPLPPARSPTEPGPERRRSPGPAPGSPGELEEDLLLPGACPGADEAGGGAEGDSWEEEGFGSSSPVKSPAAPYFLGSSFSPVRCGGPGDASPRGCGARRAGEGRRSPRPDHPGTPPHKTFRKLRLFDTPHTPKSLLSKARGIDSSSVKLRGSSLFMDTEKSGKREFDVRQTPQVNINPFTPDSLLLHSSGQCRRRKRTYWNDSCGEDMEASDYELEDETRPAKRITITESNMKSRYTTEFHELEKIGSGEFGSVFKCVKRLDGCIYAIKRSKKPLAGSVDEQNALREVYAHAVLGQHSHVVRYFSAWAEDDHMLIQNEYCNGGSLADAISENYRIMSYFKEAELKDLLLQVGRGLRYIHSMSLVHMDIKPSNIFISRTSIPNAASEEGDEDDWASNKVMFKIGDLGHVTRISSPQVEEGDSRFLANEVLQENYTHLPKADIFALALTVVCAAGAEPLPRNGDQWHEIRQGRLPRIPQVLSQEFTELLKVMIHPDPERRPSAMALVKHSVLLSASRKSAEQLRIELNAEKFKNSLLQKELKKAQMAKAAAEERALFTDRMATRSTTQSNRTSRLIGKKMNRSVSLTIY

[22] = target: G2/mitotic-specific cyclin-B1 (Homo sapiens, UniProt P14635); assay: HeLa cell cycle G2/M accumulation – FACS, mechanism study for Wee1 degradation inhibitor project, late-stage follow-up, panel member Cyclin B Degradation (AID 2088)
G2/mitotic-specific cyclin-B1, sequence (P14635 whole entry): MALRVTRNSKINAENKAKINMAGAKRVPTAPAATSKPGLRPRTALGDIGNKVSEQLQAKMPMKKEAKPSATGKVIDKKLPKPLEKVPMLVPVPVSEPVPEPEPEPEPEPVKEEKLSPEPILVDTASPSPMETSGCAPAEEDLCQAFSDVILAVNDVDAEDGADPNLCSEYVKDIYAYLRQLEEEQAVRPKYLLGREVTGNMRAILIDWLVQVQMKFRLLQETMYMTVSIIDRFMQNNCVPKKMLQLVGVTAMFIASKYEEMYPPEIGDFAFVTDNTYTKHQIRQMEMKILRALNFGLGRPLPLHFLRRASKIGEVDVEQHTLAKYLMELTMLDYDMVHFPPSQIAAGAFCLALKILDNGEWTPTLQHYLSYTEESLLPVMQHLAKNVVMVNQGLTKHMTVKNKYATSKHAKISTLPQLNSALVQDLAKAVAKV

CCOC(=O)c1ccc2c(c1)C1C=CCC1C(C(=O)O)N2 (stereo not given)
IC50 [1]: 2.18 µM (active) | IC50 (Bcl-2-like protein 10): 1.08 µM (active) | IC50 [2]: 95.4 µM (active) | IC50 [3]: 27 µM (active) | IC50 (Large T antigen): 14.2 µM (active) | IC50 [4]: > 1.56 µM (inactive) | IC50 [5]: > 100 µM (not active) | IC50 [6]: 5.56 µM (active) | IC50 [7]: 14.7 µM (active) | IC50 [8]: > 10 µM (not active) | IC50 [9]: 0.997 µM (active) | IC50 [10]: 10.2 µM (active) | IC50 [11]: 9.87 µM (active)

N#Cc1ccc(Nc2nc(-c3ccc(O)cc3O)cs2)cc1C(F)(F)F
IC50 [12]: > 50 µM (not active) | IC50 [13]: 13.5 µM (not active) | AC50 [14]: 4.98 µM (active) | IC50 [15]: > 20 µM (inactive) | EC50 [16]: 9.59 µM (active)

CCOC(=O)c1sc2nc3c(SCC(=O)O)cc(C(=O)c4cc(F)ccc4O)cn3c(=O)c2c1C
IC50 (Aminopeptidase N): 21.9 µM (active) | EC50 [17]: 1.86 µM (active) | IC50 [18]: 5.11 µM (active) | EC50 (Streptokinase A): 15.4 µM (active) | IC50 [19]: > 67 µM (not active) | IC50 [9]: 2.63 µM (active) | EC50 (Streptococcus): 141 µM (active)

CCCCNc1nc2ccccc2n1CC(=O)Nc1c(C)cccc1CC
IC50 [20]: > 43.8 µM (not active) | IC50 [21]: 31.7 µM (not active)

Cc1ccccc1OC1C=CC(C#Cc2ccc(Br)cc2)OC1CO (stereo not given)
AC50 (Cytochrome P450 2C9): 3.98 µM (inconclusive)

Cc1cccc(OCC(=O)Nc2cc(C)nn2-c2nc(C)cc(=O)[nH]2)c1
EC50 (Wee1-like protein kinase): > 16.6 µM (active) | EC50 [22]: > 49.7 µM (inactive)
